Laboratory results: PubChem BioAssay AID330 (DTP/NCI, 2004)
Values joined by “and” are separate entries in the source; they are usually repeats but may differ in a detail not shown here. Equal values may be shown once. Toxic doses and inconclusive results are not listed. Rule for the calls: active = survival T/C of 150% or more; inactive = T/C below 125% in these data. Square brackets hold non-standard residues; d marks the D form. Peptide text beside a SMILES is read from it. * marks the point of attachment. ξ: configuration not given here. Cbz = O=C(OCc1ccccc1)*; Bn = c1ccc(C*)cc1; ξC = NC(CS)C(=O)O

Tested on: P388 leukemia ip, CD2F1 mice, survival T/C
Assay: NCI In Vivo Anticancer Drug Screen. Data for tumor model P388 Leukemia (intraperitoneal) in CD2F1 (CDF1) mice
Conditions: endpoint: median survival time, higher = longer survival
Summary of the method: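 Mice carrying the transplanted tumor received test compound or vehicle. Survival was recorded in each group, and the value is the treated-group measurement divided by that of the vehicle-treated control group.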

[1] = dose: 50.0 mg/kg/injection, schedule: Q01DX005 (ip), vehicle: saline with Tween-80
[2] = dose: 100.0 mg/kg/injection, schedule: Q01DX005 (ip), vehicle: saline with Tween-80
[3] = dose: 200.0 mg/kg/injection, schedule: Q01DX005 (ip), vehicle: saline with Tween-80
[4] = dose: 60.0 mg/kg/injection, schedule: Q01DX005 (ip), vehicle: saline with Tween-80
[5] = dose: 120.0 mg/kg/injection, schedule: Q01DX005 (ip), vehicle: saline with Tween-80
[6] = dose: 240.0 mg/kg/injection, schedule: Q01DX005 (ip), vehicle: saline with Tween-80
[7] = dose: 50.0 mg/kg/injection, schedule: Q01DX005 (ip), vehicle: Klucel (hydroxypropylcellulose) (HPC)
[8] = dose: 100.0 mg/kg/injection, schedule: Q01DX005 (ip), vehicle: Klucel (hydroxypropylcellulose) (HPC)
[9] = dose: 200.0 mg/kg/injection, schedule: Q01DX005 (ip), vehicle: Klucel (hydroxypropylcellulose) (HPC)
[10] = dose: 50.0 mg/kg/injection, schedule: Q01DX009 (ip), vehicle: saline
[11] = dose: 100.0 mg/kg/injection, schedule: Q01DX009 (ip), vehicle: saline
[12] = dose: 200.0 mg/kg/injection, schedule: Q04DX003 (ip), vehicle: Klucel (hydroxypropylcellulose) (HPC)
[13] = dose: 200.0 mg/kg/injection, schedule: Q01DX009 (ip), vehicle: saline

Measured: T/C

CC(C)(CO)NCCNC(C)(C)CO
inactive: [1] 98 % of control | [2] 90 % of control | [3] 100 % of control

O=[N+]([O-])c1ccc(/C=C/C(CCN2CCOCC2)=N/O)cc1
inactive: [4] 104 % of control | [5] 99 % of control | [6] 103 % of control

COc1ccc(CCNC(=O)C(Sc2ccccn2)c2ccccc2)cc1OC (configuration not stated)
inactive: [7] 94 % of control | [8] 103 % of control | [9] 98 % of control

OC(CBr)C(O)C(O)C(O)CBr (configuration not stated)
active: dose: 80.0 mg/kg/injection, schedule: Q01DX005 (ip), vehicle: Klucel (hydroxypropylcellulose) (HPC) 173 % of control | dose: 120.0 mg/kg/injection, schedule: Q01DX005 (ip), vehicle: Klucel (hydroxypropylcellulose) (HPC) 170 % of control and 207 % of control | dose: 180.0 mg/kg/injection, schedule: Q01DX005 (ip), vehicle: Klucel (hydroxypropylcellulose) (HPC) 163 % of control and 181 % of control | [12] 190 % of control | dose: 300.0 mg/kg/injection, schedule: Q04DX003 (ip), vehicle: Klucel (hydroxypropylcellulose) (HPC) 200 % of control
inactive: dose: 12.5 mg/kg/injection, schedule: Q01DX009 (ip), vehicle: Klucel (hydroxypropylcellulose) (HPC) 106 % of control | dose: 36.0 mg/kg/injection, schedule: Q01DX005 (ip), vehicle: Klucel (hydroxypropylcellulose) (HPC) 107 % of control and 109 % of control | dose: 50.0 mg/kg/injection, schedule: Q01DX009 (ip), vehicle: Klucel (hydroxypropylcellulose) (HPC) 115 % of control | dose: 50.0 mg/kg/injection, schedule: Q01DX009 (ip), vehicle: distilled water + Tween-80 114 % of control | dose: 50.0 mg/kg/injection, schedule: Q01DX009 (ip), vehicle: saline with Tween-80 107 % of control | [10] 96 % of control | dose: 50.0 mg/kg/injection, schedule: Q01DX010 (ip), vehicle: saline 109 % of control | dose: 53.0 mg/kg/injection, schedule: Q01DX005 (ip), vehicle: Klucel (hydroxypropylcellulose) (HPC) 120 % of control | dose: 100.0 mg/kg/injection, schedule: Q01DX009 (ip), vehicle: distilled water + Tween-80 124 % of control | dose: 100.0 mg/kg/injection, schedule: Q01DX009 (ip), vehicle: saline with Tween-80 114 % of control | [11] 123 % of control | dose: 100.0 mg/kg/injection, schedule: Q01DX010 (ip), vehicle: saline 109 % of control | dose: 200.0 mg/kg/injection, schedule: Q01DX009 (ip), vehicle: Klucel (hydroxypropylcellulose) (HPC) 107 % of control | dose: 200.0 mg/kg/injection, schedule: Q01DX009 (ip), vehicle: distilled water + Tween-80 122 % of control | dose: 200.0 mg/kg/injection, schedule: Q01DX009 (ip), vehicle: saline with Tween-80 113 % of control | dose: 200.0 mg/kg/injection, schedule: Q01DX010 (ip), vehicle: saline 109 % of control | dose: 400.0 mg/kg/injection, schedule: Q01DX009 (ip), vehicle: Klucel (hydroxypropylcellulose) (HPC) 93 % of control | dose: 400.0 mg/kg/injection, schedule: Q01DX009 (ip), vehicle: distilled water + Tween-80 86 % of control | dose: 400.0 mg/kg/injection, schedule: Q01DX009 (ip), vehicle: saline with Tween-80 117 % of control | dose: 800.0 mg/kg/injection, schedule: Q01DX009 (ip), vehicle: saline with Tween-80 120 % of control

O=C(CNC(=O)OCc1ccccc1)NCC(=O)NC(CSCc1ccccc1)C(=O)O (stereo not drawn) (Cbz-Gly-Gly-[ξC](Bn)-OH)
inactive: [7] 101 % of control | [8] 100 % of control | [9] 100 % of control

CCOC(=O)/N=[N+](\[O-])c1ccc([N+](=O)[O-])cc1
inactive: dose: 100.0 mg/kg/injection, schedule: Q01DX001 (ip), vehicle: Klucel (hydroxypropylcellulose) (HPC) 95 % of control

CC1OP(=S)(S)OC1C (configuration not stated)
inactive: dose: 50.0 mg/kg/injection, schedule: Q01DX005 (ip), vehicle: saline 95 % of control | dose: 100.0 mg/kg/injection, schedule: Q01DX005 (ip), vehicle: saline 100 % of control

CC(C)N1CCN(c2ccncc2S(=O)(=O)N2CCCCC2)CC1
inactive: [10] 89 % of control | [11] 96 % of control | [13] 90 % of control

C[N+]1(C)N=C([O-])N(c2ccccc2F)C1=O
inactive: dose: 100.0 mg/kg/injection, schedule: Q04DX003 (ip), vehicle: Klucel (hydroxypropylcellulose) (HPC) 99 % of control | [12] 91 % of control

CCCC1OC(C)(Cc2ccccc2)OCC1CC (configuration not stated)
inactive: [11] 103 % of control | [13] 113 % of control | dose: 400.0 mg/kg/injection, schedule: Q01DX009 (ip), vehicle: saline 109 % of control

CC(C)[C@H](C)C(=O)C1OCOC(C2CC(=O)NC(=O)C2)[C@@H]1O (some centres not stated)
inactive: dose: 0.01 mg/kg/injection, schedule: Q01DX009 (ip), vehicle: distilled water + alcohol 102 % of control | dose: 0.03 mg/kg/injection, schedule: Q01DX009 (ip), vehicle: distilled water + alcohol 109 % of control | dose: 0.06 mg/kg/injection, schedule: Q01DX009 (ip), vehicle: distilled water + alcohol 109 % of control | dose: 0.12 mg/kg/injection, schedule: Q01DX009 (ip), vehicle: distilled water + alcohol 100 % of control

Cc1ccc(S(=O)(=O)NC(=O)O/N=C/c2ccco2)cc1
inactive: [7] 98 % of control | [8] 98 % of control | [9] 100 % of control

CC(C)=CCc1ccc2c(c1)CCCN2C
inactive: dose: 100.0 mg/kg/injection, schedule: Q04DX002 (ip), vehicle: saline with Tween-80 108 % of control | dose: 200.0 mg/kg/injection, schedule: Q04DX002 (ip), vehicle: saline with Tween-80 108 % of control

COc1cc2cc(c1Cl)N(C)C(=O)/C=C/C1(C)OC1C(C)C1CC(O)(NC(=O)O1)C(OC)/C=C/C=C(\C)C2OC (configuration not stated)
inactive: dose: 4.0 micrograms/kg/injection, schedule: Q01DX009 (ip), vehicle: distilled water + alcohol 103 % of control | dose: 8.0 micrograms/kg/injection, schedule: Q01DX009 (ip), vehicle: distilled water + alcohol 100 % of control | dose: 64.0 micrograms/kg/injection, schedule: Q01DX009 (ip), vehicle: distilled water + alcohol 99 % of control | dose: 128.0 micrograms/kg/injection, schedule: Q01DX009 (ip), vehicle: distilled water + alcohol 91 % of control

CNc1nc2ncnc(NC)c2[nH]1
inactive: [1] 99 % of control | [2] 92 % of control | [3] 90 % of control

NC(C(=O)O)C(F)C(=O)O (configuration not stated)
inactive: dose: 10.0 mg/kg/injection, schedule: Q01DX009 (ip), vehicle: saline 109 % of control | dose: 20.0 mg/kg/injection, schedule: Q01DX009 (ip), vehicle: saline 106 % of control | dose: 40.0 mg/kg/injection, schedule: Q01DX009 (ip), vehicle: saline 100 % of control

CC(C)=CCC1=C(OC2OC(CO)C(O)C(O)C2O)C(=O)c2ccccc2C1=O (configuration not stated)
inactive: dose: 6.25 mg/kg/injection, schedule: Q01DX009 (ip), vehicle: saline with Tween-80 121 % of control | dose: 12.5 mg/kg/injection, schedule: Q01DX009 (ip), vehicle: saline with Tween-80 118 % of control | dose: 25.0 mg/kg/injection, schedule: Q01DX009 (ip), vehicle: saline with Tween-80 114 % of control

c1ccc(C2=NC3CCCC[C@H]3O2)cc1 (some centres not stated)
inactive: dose: 30.0 mg/kg/injection, schedule: Q01DX005 (ip), vehicle: saline with Tween-80 108 % of control | [4] 101 % of control and 96 % of control | [5] 105 % of control | [6] 100 % of control

[Cu+2].c1nn[nH]n1
inactive: dose: 12.5 mg/kg/injection, schedule: Q04DX003 (ip), vehicle: Klucel (hydroxypropylcellulose) (HPC) 93 % of control | dose: 25.0 mg/kg/injection, schedule: Q04DX003 (ip), vehicle: Klucel (hydroxypropylcellulose) (HPC) 97 % of control | dose: 50.0 mg/kg/injection, schedule: Q04DX003 (ip), vehicle: Klucel (hydroxypropylcellulose) (HPC) 95 % of control

CC1CN(Cc2ccccc2)CCC1N1CCCC1 (configuration not stated)
inactive: [1] 111 % of control | [2] 107 % of control | [3] 109 % of control

CN1C(=O)N(C)C(=O)C(Cl)(Cl)C1=O
inactive: dose: 12.5 mg/kg/injection, schedule: Q01DX005 (ip), vehicle: Klucel (hydroxypropylcellulose) (HPC) 101 % of control | dose: 25.0 mg/kg/injection, schedule: Q01DX005 (ip), vehicle: Klucel (hydroxypropylcellulose) (HPC) 97 % of control
